Assay results from patent publication EP0480714A2, “HIV protease inhibitors having symmetrical structure” (MERCK & CO. INC., priority 1990, dated 1992).

Molecular target: HIV protease (Human immunodeficiency virus type 1 group M subtype B, UniProt P04585)
Assay: Assay for inhibition of microbial expressed viral protease (peptide substrate cleavage, HPLC readout)
Assay type: biochemical
Conditions: protease expressed in Eschericia coli; peptide substrate Val-Ser-Gln-Asn-(betanapthyl)Ala-Pro-Ile-Val 0.5 mg/mL; 50 mM Na acetate, pH 5.5, 30°C, 1 hour; read-out: IC₅₀
Protocol: Assay for Inhibition of Microbial Expressed Viral Protease
Inhibition studies of the reaction of the protease expressed in Eschericia coli with a peptide substrate [Val-Ser-Gln-Asn-(betanapthyl)Ala-Pro-Ile-Val, 0.5 mg/mL at the time the reaction is initiated] were in 50 mM Na acetate, pH 5.5, at 30°C for 1 hour. Various concentrations of inhibitor in 1.0 ul DMAO were added to 25 ul of the peptide solution in water. The reaction is initiated by the addition of 15 ul of 0.33 nM protease (0.11 ng) in a solution of 0.133 M Na acetate pH 5.5 and 0.26% bovine serum albumin. The reaction was quenched with 160 ul of 5% phosphoric acid. Products of the reaction were separated by HPLC (VYDAC wide pore 5 cm C-18 reverse phase, acetonitrile gradient, 0.1% phosphoric acid). The extent of inhibition of the reaction was determined from the peak heights of the products.

- IC50: ~0.7 nM
SMILES: O=C(N[C@H]1c2ccccc2C[C@H]1O)[C@H](Cc1ccccc1)CC(O)C[C@@H](Cc1ccccc1)C(=O)N[C@H]1c2ccccc2C[C@H]1O [Example 1, N,N-bis-(2(R)-hydroxy-1(S)-indanyl)-2, 6(R,R)diphenylmethyl-4-hydroxy-1,7-heptanediamide]
